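Results reflect a 48-hour exposure of cells in 96-well plates to compound at five concentrations. TGI is the concentration that stops growth completely.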 Bounds are passed on as bounds.

One may read the TGI as the concentration giving total growth inhibition. High values mean lower sensitivity of the cells, low ones greater sensitivity of the cells.

Common to all, as to experiment: DTP human tumour cell line panel, 48 h
For test [1], the system named is PC-3 prostate.
Test [2] concerns MDA-N.
The test system of test [3] is CAKI-1 renal.
Test [4] relates to NCI-H460 lung.
For test [5], the system named is IGROV1 ovarian.
The subject of test [6] is ACHN renal.
In test [7] the test system is HCT-116 colon.
The subject of test [8] is MDA-MB-435.
Test [9] concerns 786-0 renal.
Test [10] concerns T-47D breast.
The subject of test [11] is SK-MEL-2 melanoma.

For the molecule `O=c1c2cc(-c3ccccc3)cnc2sn1-c1ccc([N+](=O)[O-])cc1`, the TGI in [1], in [2], in test [3], in test [4], in test [5] and in test [6] was > 100 µM in each case. For the same molecule, the TGI in test [7], in [8], in test [9], in test [10] and in [11] was > 100 µM each time.

For `CCCCCC(/C=C/[C@@H]1CC(=O)C[C@H]1O[Si](C)(C)C(C)(C)C)OCOCCOC` (some centres not stated), the TGI was determined as 14.1 µM in test [1]; 9.44 µM in test [2]; 7.87 µM in test [3]; 40.2 µM in test [4]; 9.48 µM in test [5]; 8.76 µM in test [6]. In addition, the TGI worked out at 13.5 µM in test [7]; 4.64 µM in test [8]; 14.3 µM in test [9]; 44 µM in test [10]; 12.6 µM in test [11].

Take `N=C1N=C(N)c2cc3c(cc21)SCCSCCCSCCS3`: the TGI in test [1] is 34.7 µM; in [2], 33.8 µM; in test [3], > 63.4 µM; in [4], 29.9 µM; in [5], 38.4 µM; in test [6], 28.2 µM. For the same molecule, the TGI in test [7] stood at 23.6 µM; in test [8], 15.9 µM; in [9] it was 32.6 µM; in test [10] it was 69.1 µM; in test [11], 37.7 µM.

In the case of `CCN(CC)C(=S)SNCCc1ccc(S(N)(=O)=O)cc1`, the TGI is 26.9 µM in test [1]; 40.6 µM in test [2]; 29 µM in test [3]; > 100 µM in test [4]; 34.3 µM in test [6]; 26.4 µM in test [7]. In addition, the TGI in [8] is 29.6 µM; in test [9] it was 27.8 µM; in [10] it was 45.1 µM; in test [11], > 86.7 µM.

Consider `Oc1[nH]c2ccccc2c1N=NC(=S)N1CCCCCC1`, for which the TGI in test [1] came out at 10.6 µM; in test [2], 22.7 µM; in test [3], 4.62 µM; in test [4], 5.28 µM; in [5], 2.35 µM; in test [6] it was 8.73 µM. In addition, the TGI in test [7] amounted to 1.9 µM; in [8], 3.71 µM; in test [9], 2.63 µM; in [10], 17.6 µM; in test [11], 5.72 µM.

Take `CC(=O)NC1C(OCc2ccccc2)OC(CO)C(O)C1OCC(=O)NC(C)C(=O)NC(CCC(=O)NCCCCCC(=O)Nc1ccc2c(c1)CN1C(=O)c3ccccc3C1=N2)C(N)=O` (configuration not stated): the TGI in test [1], in [2], in [3], in test [4], in test [5] and in test [6] was > 100 µM in each case. For the same molecule, the TGI in test [7], in [8], in test [9], in test [10] and in test [11] was > 100 µM each time.

As for `Brc1cccc(C2(CCCC3(c4cccc(Br)n4)OCCO3)OCCO2)n1`, the TGI in test [1], in [2], in [3], in test [4], in test [5] and in [6] was > 100 µM throughout. Besides, the TGI in test [7], in [8], in test [9], in [10] and in test [11] was > 100 µM in each case.

In the case of `CC(=O)OCC1OC(OCC2OC(N3C(=S)N[C@H]([C@@H](O)[C@H](O)[C@H](O)CO)[C@H]3O)C(OC(C)=O)C(OC(C)=O)C2OC(C)=O)C(OC(C)=O)C(OC(C)=O)C1OC(C)=O` (some centres not stated), the TGI in test [1], in [2], in [3], in [4], in [6] and in test [7] was > 100 µM in each case. In addition, the TGI in test [8], in test [9], in test [10] and in [11] was > 100 µM throughout.

Turning to `O=[N+]([O-])c1cccc2nc3ccccc3c(NCCC[N+]3([O-])CCCCC3)c12`, the total growth inhibition concentration (TGI) in [1] was 0.649 µM; in [2] it was 0.56 µM; in [3] it was > 100 µM; in test [4], 1.18 µM; in test [5], 6.33 µM; in test [6], 47.5 µM. The concentration for total growth inhibition (TGI) in test [7] worked out at 1.04 µM; in test [8] it was 0.44 µM; in test [9], 3.34 µM; in test [10], 4.9 µM; in [11], 0.354 µM.

With `Cc1ccc(S(=O)(=O)n2cc(-c3cnc(N)c(Br)n3)c3ccccc32)cc1`, the TGI in [1] is > 31.1 µM; in [2] it was 0.836 µM; in test [3], > 100 µM; in test [4] it was > 100 µM; in test [5], 5.71 µM; in test [6] it was > 89.4 µM. For the same molecule, the total growth inhibition concentration (TGI) is 0.588 µM in test [8], > 23.3 µM in test [9], > 100 µM in test [10] and > 100 µM in test [11].

As for `Cc1ccnc(NC(=S)Nc2ccccc2Cl)c1`, the TGI in test [1], in test [2], in test [3], in test [4], in [5] and in [7] was > 100 µM in each case. In addition, the TGI in [8], in [9], in test [10] and in test [11] was > 100 µM throughout.

For the molecule `O=C(/C=C/c1cccs1)c1ccsc1`, the TGI in test [1] was 59.1 µM; in test [2], 36.3 µM; in test [3] it was > 100 µM; in test [4], 60.4 µM; in test [5], 73.6 µM; in test [6] it was 42.6 µM. The TGI in [8] is 39.8 µM; in test [9], > 100 µM; in [10], 72 µM; in test [11], > 100 µM.
